# In patent US20240404621A1, “THERAPEUTIC DEVELOPMENT PLATFORM COMPRISING VARIANT CAPTURE MAPS AND OTHER VISUALIZATIONS” (The Scripps Research Institute, priority 2021, published 2024):
# Key:
# [1] = molecular target: T1, F508del CFTR (Homo sapiens, UniProt P13569, DEL508-508); assay: total level and trafficking (TrIdx) of F508del in F508del-CFBE41o− cells; type: cell-based
# T1 construct: expressed in transfected cells
# Text: (§1) FIG. 2 illustrates an example process of variant spatial profiling (VSP) to generate a phenotype landscape 300 of FIG. 1. VSP uses a sparse collection of variants with known position and phenotypical traits. Each of the variants is positioned on the x-axis by their normalized position in the linear polypeptide sequence, where the full-length chain is assigned a value of 1.0, referred to as the variant sequence position (VarSeqP). The value of a phenotypic feature of each variant's (in this example the trafficking index, TrIdx) to the y-axis. The trafficking index (TrIdx) is the normalized ratio of the fraction of variants exported from the ER relative to the total variant level in the cell, where the value of the WT CFTR TrIdx is assigned a value of 1.0. In this example, the sequence position and TrIdx values are correlated to CFTR chloride conductance (CICon). The normalized CICon is assigned to the z-coordinate, where the value of the WT CFTR CICon is assigned a value of 1.0.
# Referring now to FIG. 13, to address whether the correction of CICon in response to temperature is due to energetic features associated with global SCV relationships responsible for membrane trafficking of CFTR from the ER, we built the VarC map for the CFTR trafficking index (TrIdx) of variants following shift from 37° C. to 27° C. TrIdx quantifies the amount of CFTR in post-ER compartments relative to total CFTR in the cell as a measure of efficiency of ER export. The pairwise-residue based TS/TrIdx-VarC map (FIG. 13, upper left panel) and its corresponding TS/TrIdx-functional-response-structure (FIG. 13, upper second from left panel) reveal that only a limited subset of sequence residues contributes to TrIdx correction upon temperature shift. These include: 1) a sequence region containing F508 (FIG. 13, upper left panel, inset zoom); 2) a region in NBD1 domain including variants L558S, A559T, R560K/T and Y569D that are surrounding the CFTR di-acidic code (YKDAD (residues 563-567)) required for COPII dependent ER export (FIG. 13 upper left panel, inset zoom); 3) a sequence region in ICL4 that is reported by CF variants L1065P and L1077P (13) (FIG. 13, upper left panel, inset zoom). Even though separated in primary sequence, these responding regions cluster together in structure (FIG. 13, upper second from left panel). Overlap of MDC maps and corresponding MDC structures between TS/CICon and TS/TrIdx identifies a common energetic sensitive core (FIG. 13, right side, red) responding to temperature shift for both TrIdx and CICon function. This SCV based energetic sensitive core contains the F508-L1065 covariant link that bridges NBD1 (F508) and ICL4 (L1065) (FIG. 13, right panel, inset zoom, red), mechanistically explaining the previous observation that the NBD1-ICL4 interaction is crippled by F508del.
# Consistent with previous results, using F508del-CFBE41o− cells, a bronchial epithelial cell line stably expressing the F508Del CFTR transgene, we found ELEXA alone can increase both the total level and the trafficking efficacy of F508del.
# To test whether we can add value to the pairwise-residue networks targeted by TRIKA to improve TRIKA benefit for CF by restoring the lost energetics of the fold in response to F508del affecting the function of di-acidic exit code, we measured the impact of ELEXA and TRIKA impact on F508del at 27° C.
# [2] = molecular target: T1, F508del CFTR; assay: steady-state CICon at the cell surface of WT and F508del; type: cell-based; conditions: F508del relative to WT
# Text: as §1
# To assess how TrIdx is coupled to CICon at the cell surface in response to ELEXA or TRIKA, we assessed the steady-state CICon at the cell surface of WT and F508del. […] To understand the impact of ELEXA and TRIKA on the SCV relationships spanning the entire CFTR polypeptide, we measured the CICon responses for 64 CF variants. […]
# [3] = F508del at 27° C. compared to 37° C.
# [4] = F508del-CFBE41o− cells, compound alone
# T1 sequence (P13569 with tags, fused parts or gaps DEL508-508): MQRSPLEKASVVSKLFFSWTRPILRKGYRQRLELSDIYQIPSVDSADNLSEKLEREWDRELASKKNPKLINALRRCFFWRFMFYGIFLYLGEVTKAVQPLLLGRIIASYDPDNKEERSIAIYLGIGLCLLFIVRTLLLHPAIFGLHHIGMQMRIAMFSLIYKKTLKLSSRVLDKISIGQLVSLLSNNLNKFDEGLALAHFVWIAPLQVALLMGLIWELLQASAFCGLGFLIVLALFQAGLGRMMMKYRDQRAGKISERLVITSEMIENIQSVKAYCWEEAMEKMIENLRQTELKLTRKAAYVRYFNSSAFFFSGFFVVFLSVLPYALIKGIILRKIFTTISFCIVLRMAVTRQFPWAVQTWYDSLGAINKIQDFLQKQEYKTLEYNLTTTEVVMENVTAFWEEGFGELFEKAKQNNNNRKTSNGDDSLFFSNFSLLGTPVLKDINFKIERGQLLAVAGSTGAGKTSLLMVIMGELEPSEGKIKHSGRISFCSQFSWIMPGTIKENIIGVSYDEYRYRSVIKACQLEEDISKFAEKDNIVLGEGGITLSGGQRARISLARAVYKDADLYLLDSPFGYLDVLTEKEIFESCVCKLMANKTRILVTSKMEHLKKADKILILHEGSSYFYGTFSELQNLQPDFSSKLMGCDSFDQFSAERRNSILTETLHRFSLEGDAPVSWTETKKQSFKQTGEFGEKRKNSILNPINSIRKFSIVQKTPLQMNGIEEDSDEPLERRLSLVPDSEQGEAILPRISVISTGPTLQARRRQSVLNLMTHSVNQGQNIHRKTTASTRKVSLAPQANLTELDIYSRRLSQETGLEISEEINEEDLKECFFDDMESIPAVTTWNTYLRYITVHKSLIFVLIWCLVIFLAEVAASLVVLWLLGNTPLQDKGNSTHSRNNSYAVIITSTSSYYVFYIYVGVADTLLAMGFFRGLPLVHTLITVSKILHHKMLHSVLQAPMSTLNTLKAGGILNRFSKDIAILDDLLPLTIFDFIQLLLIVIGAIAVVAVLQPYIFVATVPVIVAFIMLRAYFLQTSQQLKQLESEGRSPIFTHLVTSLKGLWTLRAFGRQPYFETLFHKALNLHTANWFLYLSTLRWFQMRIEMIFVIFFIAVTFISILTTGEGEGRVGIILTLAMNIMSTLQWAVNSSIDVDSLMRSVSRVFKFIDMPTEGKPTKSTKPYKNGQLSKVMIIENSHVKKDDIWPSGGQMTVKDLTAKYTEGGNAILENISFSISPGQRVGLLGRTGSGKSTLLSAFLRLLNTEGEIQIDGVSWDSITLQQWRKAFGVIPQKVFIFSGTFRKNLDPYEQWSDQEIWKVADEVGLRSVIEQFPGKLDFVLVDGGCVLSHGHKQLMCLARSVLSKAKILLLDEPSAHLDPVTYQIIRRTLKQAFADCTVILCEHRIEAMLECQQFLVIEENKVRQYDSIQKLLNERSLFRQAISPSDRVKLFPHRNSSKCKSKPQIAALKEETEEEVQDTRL
Structure (SMILES),"impact on TrIdx ([1]; F508del-CFBE41o− cells, IVA added to ELEXA)","level of post-ER band C [1, 3]","total CFTR [1, 3]","trafficking efficiency (band C relative to total) [1, 3]","total level of F508del [1, 4]","trafficking efficacy of F508del [1, 4]",CICon function for F508del [2]
"CC(C)(C)c1cc(C(C)(C)C)c(NC(=O)c2c[nH]c3ccccc3c2=O)cc1O [IVA, Ivacaftor]",no additional impact,–,–,–,–,–,–
"Cc1nn(C)cc1S(=O)(=O)NC(=O)c1ccc(-n2ccc(OCC(C)(C)C(F)(F)F)n2)nc1N1C[C@@H](C)CC1(C)C [ELEXA, Elexacaftor]",–,dramatic improvement,dramatic improvement,dramatic improvement,can increase,can increase,~20 % of WT
